According to patent US11596611B2, “Hepatitis B antiviral agents” (ENANTA PHARMACEUTICALS, INC., priority 2017, dated 2023):

These compounds were tested on HBV (assay: HepAD38 antiviral assay: reduction of viral product accumulation (virion DNA by qPCR, HBsAg or HBeAg by ELISA)). Settings: Hepatitis B virus, 120 h; HepAD38 cells, five days after compound addition; 50% reduction of viral product vs no drug controls; read-out: HepAD38 EC50.
Format: cell-based, hepatitis B virus
Protocol: Methods: HepAD38 cells are maintained as previously reported (Ladner et al, Antimicrob. Agents Chemother. 1997, […], 1715). Briefly, cells are passaged upon attaining confluency in DMEM/F12 media in the presence of 10% FBS, Penn/Strep, 250 μg/mL G418, and 1 ug/ml tetracycline. Novel compounds are screened by first washing cells three times with PBS to remove tetracycline, and plating in 96 well plates at 35,000 cells/well. Compounds dissolved in DMSO are then diluted 1:200 into wells containing cells. Five days after compound addition, material is harvested for analysis. For an extended 8 days analysis, cells are plated and treated as described above, but media and compound are refreshed on d2 and d5 post initial treatment.
On harvest day, virion DNA is obtained by lysing with Sidestep Lysis and Stabilization Buffer and then quantified via quantitative real time PCR. Commercially available ELISA kits are used to quantitate the viral proteins HBsAg (Alpco) or HbeAg (US Biological) by following the manufacturer's recommended protocol after diluting samples to match the linear range of their respective assays.
`CC(C)N(C)[C@H]1C2CCC1C[C@H](S(=O)(=O)c1cc(C(=O)Nc3ccc(F)c(F)c3)ccc1Cl)C2` [Example 307] gave an EC50 of 100 to 200 nM. In the case of `C[C@@]1(O)C2CC[C@H]1C[C@H](S(=O)(=O)c1cc(C(=O)Nc3ccc(F)c(F)c3)c(-c3ccncc3)cc1Cl)C2` [Example 132], the EC50 is reported as > 200 nM. In the case of `O=C(Nc1ccc(F)c(F)c1)c1ccc(Cl)c(S(=O)(=O)[C@@H]2CC3CC[C@@H](C2)[C@@]3(O)C(O)c2ccc3ccccc3n2)c1` (stereo partly drawn) [Example 301], the EC50 is reported as < 104 nM. With `O=C(C[C@]1(O)C2CCC1C[C@@H](S(=O)(=O)c1cc(C(=O)Nc3cc(F)c(F)c(F)c3)ccc1Cl)C2)Nc1nccs1` [Example 138] the EC50 was < 104 nM. For `O=C(Nc1ccc(F)c(F)c1)c1ccc(Cl)c(S(=O)(=O)[C@H]2CC3CCC(C2)[C@]3(O)C(O)CN2CCOC2=O)c1` (stereo partly drawn) [Example 315], the EC50 was > 200 nM. In the case of `COC(=O)N1C[C@H](O)C[C@H]1C(=O)NC[C@]1(O)C2CCC1C[C@@H](S(=O)(=O)c1cc(C(=O)Nc3cc(F)c(F)c(F)c3)ccc1Cl)C2` [Example 8], the EC50 is reported as > 200 nM. In the case of `O=C(Nc1ccc(F)c(F)c1)c1ccc(Cl)c(S(=O)(=O)[C@H]2CC3CCC(C2)[C@]3(O)[C@@H](O)c2ccccn2)c1` (single isomer, unassigned) [Example 284a], the EC50 is reported as < 104 nM. For `C[C@H](O)[C@@H](O)[C@]1(O)C2CCC1C[C@@H](S(=O)(=O)c1cc(C(=O)Nc3ccc(F)c(F)c3)n(C)c1)C2` [Example 341], the EC50 was > 200 nM. With `O=C(Nc1cc(F)c(F)c(F)c1)c1ccc(Cl)c(S(=O)(=O)[C@H]2CC3CCC(C2)[C@]3(O)CNS(=O)(=O)CC(O)CO)c1` (stereo partly drawn) [Example 40] the EC50 was > 200 nM. In the case of `NS(=O)(=O)NC[C@]1(O)C2CCC1C[C@@H](S(=O)(=O)c1cc(C(=O)Nc3cc(F)c(F)c(F)c3)ccc1Cl)C2` [Example 156], the EC50 is reported as < 104 nM. With `O=C(Nc1ccc(F)c(F)c1)c1ccc(Cl)c(S(=O)(=O)[C@@H]2CC3CC[C@@H](C2)[C@@]3(O)C(O)c2ncccc2C(F)F)c1` (stereo partly drawn) [Example 349] the EC50 was 100 to 200 nM. `O=C(Nc1cc(F)c(F)c(F)c1)c1ccc(Cl)c(S(=O)(=O)C2CC3CCC(C2)C3C(O)C(O)CO)c1` (stereo not drawn) [Example 20] was tested, and the EC50 was < 104 nM. With `O=C(Nc1ccc(F)c(F)c1)c1ccc(Cl)c(S(=O)(=O)[C@H]2CC3CC[C@@H](C2)[C@@]3(O)C(O)Cn2ccnc2)c1` (stereo partly drawn) [Example 311] the EC50 was > 200 nM. In the case of `COC(=O)CNC(=O)CC1(O)CC(S(=O)(=O)c2cc(C(=O)Nc3ccc(F)c(F)c3)ccc2Cl)C1` (stereo not drawn) [Example 244], the EC50 is reported as > 200 nM. For `C[C@@H](CO)NC(=O)[C@H]1C[C@H](S(=O)(=O)c2cc(C(=O)Nc3ccc(F)c(F)c3)ccc2Cl)C1` [Example 256a], the EC50 was > 200 nM. In the case of `O=C(Nc1ccc(F)c(F)c1)c1ccc(Cl)c(S(=O)(=O)[C@H]2C[C@H](CO)C2)c1` [Example 252a], the EC50 is reported as > 200 nM. With `COC(=O)[C@H]1C[C@@H](S(=O)(=O)c2cc(C(=O)Nc3ccc(F)c(F)c3)ccc2Cl)C1` [Example 250b] the EC50 was > 200 nM. `O=C(O)CC1(O)CC(S(=O)(=O)c2cc(C(=O)Nc3ccc(F)c(F)c3)ccc2Cl)C1` (stereo not drawn) [Example 243] was tested, and the EC50 was > 200 nM. In the case of `O=C(Nc1ccc(F)c(F)c1)c1ccc(Cl)c(S(=O)(=O)[C@H]2CC3CCC(C2)[C@]3(O)C(O)Cc2ncc[nH]2)c1` (stereo partly drawn) [Example 316], the EC50 is reported as > 200 nM. With `CC1(C)O[C@H]2[C@H](CO[C@@H]2C(=O)NC[C@@]2(O)C3CC[C@H]2C[C@H](S(=O)(=O)c2cc(C(=O)Nc4cc(F)c(F)c(F)c4)ccc2Cl)C3)O1` [Example 28] the EC50 was < 104 nM. `COC(=O)N1CC[C@H](O)[C@H]1C(=O)NC[C@@]1(O)C2CC[C@H]1C[C@H](S(=O)(=O)c1cc(C(=O)Nc3cc(F)c(F)c(F)c3)ccc1Cl)C2` [Example 79] was tested, and the EC50 was > 200 nM. `O=C(Nc1ccc(F)c(F)c1)c1ccc(Cl)c(S(=O)(=O)[C@@H]2CC3C[C@H](O)C(C2)[C@@]3(O)CO)c1` (stereo partly drawn) [Example 327] was tested, and the EC50 was 100 to 200 nM. `O=C(Nc1ccc(F)c(F)c1)c1ccc(Cl)c(S(=O)(=O)[C@H]2CC3CCC(C2)[C@]3(O)[C@@H](O)CO)c1` (single isomer, unassigned) [Example 175] was tested, and the EC50 was < 104 nM. `O=C(C[C@]1(O)C2CCC1C[C@@H](S(=O)(=O)c1cc(C(=O)Nc3cc(F)c(F)c(F)c3)ccc1Cl)C2)NCC(O)CO` (stereo partly drawn) [Example 65] was tested, and the EC50 was < 104 nM. `COC(=O)NCC(O)C(=O)NC[C@]1(O)C2CCC1C[C@@H](S(=O)(=O)c1cc(C(=O)Nc3cc(F)c(F)c(F)c3)ccc1Cl)C2` (stereo partly drawn) [Example 96] showed an EC50 of 100 to 200 nM. In the case of `O=C(Nc1ccc(F)c(F)c1)c1ccc(Cl)c(S(=O)(=O)[C@@H]2CC3C[C@@H](O)C(C2)[C@@]3(O)CO)c1` (stereo partly drawn) [Example 328], the EC50 is reported as 100 to 200 nM. With `O=C(C[C@]1(O)C2CCC1C[C@@H](S(=O)(=O)c1cc(C(=O)Nc3cc(F)c(F)c(F)c3)ccc1Cl)C2)NC1COC1` [Example 110] the EC50 was < 104 nM. `CC(C)(O)CNC(=O)C[C@]1(O)CC[C@H](CS(=O)(=O)c2cc(C(=O)Nc3ccc(F)c(F)c3)ccc2Cl)CC1` [Example 196] was tested, and the EC50 was > 200 nM. With `COC(=O)[C@H]1C[C@H](S(=O)(=O)c2cc(C(=O)Nc3ccc(F)c(F)c3)ccc2Cl)C1` [Example 250a] the EC50 was > 200 nM. `COC(=O)N[C@H](C)C(=O)NC[C@]1(O)C2CCC1C[C@@H](S(=O)(=O)c1cc(C(=O)Nc3cc(F)c(F)c(F)c3)ccc1Cl)C2` [Example 86] was tested, and the EC50 was < 104 nM. In the case of `CC[C@H](O)[C@@H](O)[C@]1(O)C2CCC1C[C@@H](S(=O)(=O)c1cc(C(=O)Nc3ccc(F)c(F)c3)ccc1Cl)C2` [Example 334], the EC50 is reported as < 104 nM. For `Cc1ccc(C(O)[C@]2(O)C3CCC2C[C@@H](S(=O)(=O)c2cc(C(=O)Nc4ccc(F)c(F)c4)ccc2Cl)C3)nc1` (stereo partly drawn) [Example 293], the EC50 was < 104 nM. For `O=C(Nc1ccc(F)c(F)c1)c1ccc(Cl)c(S(=O)(=O)[C@H]2CC3CCC(C2)[C@]3(O)CO[C@@H]2O[C@H](C(=O)O)[C@@H](O)[C@H](O)[C@H]2O)c1` [Example 330], the EC50 was > 200 nM. For `CS(=O)(=O)NCC(O)[C@]1(O)C2CCC1C[C@@H](S(=O)(=O)c1cc(C(=O)Nc3cc(F)c(F)c(F)c3)ccc1Cl)C2` (stereo partly drawn) [Example 26], the EC50 was < 104 nM. In the case of `COC[C@]1(O)C2CCC1C[C@@H](S(=O)(=O)c1cc(C(=O)Nc3cc(F)c(F)c(F)c3)ccc1Cl)C2` [Example 123], the EC50 is reported as < 104 nM. With `CC(C)N(C)C[C@]1(O)C2CCC1C[C@@H](S(=O)(=O)c1cc(C(=O)Nc3ccc(F)c(F)c3)ccc1Cl)C2` [Example 304] the EC50 was < 104 nM. For `COC(=O)N1CC(=O)C[C@H]1C(=O)NC[C@]1(O)C2CCC1C[C@@H](S(=O)(=O)c1cc(C(=O)Nc3cc(F)c(F)c(F)c3)ccc1Cl)C2` [Example 74], the EC50 was 100 to 200 nM. In the case of `O=C(Nc1cc(F)c(F)c(F)c1)c1ccc(Cl)c(S(=O)(=O)[C@H]2CC3CCC(C2)[C@]3(O)CNC(=O)[C@H]2CCCO2)c1` [Example 15], the EC50 is reported as < 104 nM. With `O=C(Nc1cc(F)c(F)c(F)c1)c1ccc(Cl)c(S(=O)(=O)[C@@H]2CC3CC[C@@H](C2)[C@@]3(O)CNC(=O)[C@H]2OCC(O)[C@@H]2O)c1` (stereo partly drawn) [Example 29] the EC50 was > 200 nM. In the case of `COC(=O)N1CC[C@@H](O)[C@H]1C(=O)NC[C@]1(O)C2CCC1C[C@@H](S(=O)(=O)c1cc(C(=O)Nc3cc(F)c(F)c(F)c3)ccc1Cl)C2` [Example 78], the EC50 is reported as > 200 nM. With `O=C1CC[C@H](C(=O)NC[C@@]2(O)C3CC[C@H]2C[C@H](S(=O)(=O)c2cc(C(=O)Nc4cc(F)c(F)c(F)c4)ccc2Cl)C3)N1` [Example 128] the EC50 was > 200 nM. `CC(O)C(O)CNC(=O)C[C@]1(O)C2CCC1C[C@@H](S(=O)(=O)c1cc(C(=O)Nc3cc(F)c(F)c(F)c3)ccc1Cl)C2` (stereo partly drawn) [Example 57] gave an EC50 of 100 to 200 nM. For `O=C(Nc1cc(F)c(F)c(F)c1)c1ccc(Cl)c(S(=O)(=O)[C@H]2CC3CCC(C2)[C@]3(O)CO[C@@H]2C[C@@H](O)[C@@H](O)C2)c1` [Example 35], the EC50 was < 104 nM. For `O=C(Nc1cc(F)c(F)c(F)c1)c1ccc(Cl)c(S(=O)(=O)[C@H]2CC3CCC(C2)[C@]3(O)COCC(O)CO)c1` (stereo partly drawn) [Example 63], the EC50 was < 104 nM. `O=C(Nc1cc(F)c(F)c(F)c1)c1ccc(Cl)c(S(=O)(=O)[C@@H]2CC3CC[C@@H](C2)[C@@]3(O)CNC(=O)C2CC2(O)CO)c1` (stereo partly drawn) [Example 67] was tested, and the EC50 was > 200 nM. For `CC(C)(C)OC(=O)N1CC[C@H](O)[C@H]1C(=O)NC[C@@]1(O)C2CC[C@H]1C[C@H](S(=O)(=O)c1cc(C(=O)Nc3cc(F)c(F)c(F)c3)ccc1Cl)C2` [Example 77], the EC50 was > 200 nM. In the case of `C[C@]1(O)C2CCC1C[C@@H](S(=O)(=O)c1cc(C(=O)Nc3ccncn3)ccc1Cl)C2` [Example 221], the EC50 is reported as > 200 nM. `O=C(Nc1cc(F)c(F)c(F)c1)c1ccc(Cl)c(S(=O)(=O)[C@H]2C3CC[C@H]2C[C@](O)(C(O)C(O)CO)C3)c1` (mixture of isomers) [Example 64] showed an EC50 of 100 to 200 nM. With `O=C(Nc1cc(F)c(F)c(F)c1)c1ccc(Cl)c(S(=O)(=O)[C@H]2CC3CCC(C2)[C@]3(O)CNC(=O)C2CCC(O)C(O)C2)c1` (single isomer, unassigned) [Example 19] the EC50 was > 200 nM. With `COCCOC[C@]1(O)C2CCC1C[C@@H](S(=O)(=O)c1cc(C(=O)Nc3cc(F)c(F)c(F)c3)ccc1Cl)C2` [Example 98] the EC50 was < 104 nM. With `O=C(Nc1ccc(F)c(F)c1)c1ccc(Cl)c(S(=O)(=O)[C@H]2CC3CCC(C2)[C@]3(O)C(O)c2ncccc2F)c1` (stereo partly drawn) [Example 297] the EC50 was < 104 nM. For `O=C(CC1(O)CC(S(=O)(=O)c2cc(C(=O)Nc3ccc(F)c(F)c3)ccc2Cl)C1)NCCCO` (stereo not drawn) [Example 249], the EC50 was > 200 nM. With `C[C@@]1(O)C2CC[C@H]1C[C@H](S(=O)(=O)c1cc(C(=O)Nc3cnccn3)ccc1Cl)C2` [Example 214] the EC50 was > 200 nM. For `O=C1NCC([C@H](O)[C@@H](O)[C@]2(O)C3CCC2C[C@@H](S(=O)(=O)c2cc(C(=O)Nc4ccc(F)c(F)c4)ccc2Cl)C3)O1` (stereo partly drawn) [Example 348], the EC50 was < 104 nM.
